# Results taken from patent publication EP1116715A1, “Tetramic acid derivatives useful in medicines and foodstuffs” (priority 2000, dated 2001).
# What was measured:
# Format in all cases: cell-based
# [1] = system: Bakterien; test: antibacterial activity of synthetic product compared with natural reutericyclin; conditions: relative to natural reutericyclin
# Source text: (§1) Das Wirkungsspektrum von Reutericyclin wurde mit Hilfe des Naturstoffes untersucht, der aus Lactobacillus reuteri LTH 2584 wie oben beschrieben isoliert wurde. Die antimikrobielle Aktivität wurde gegenüber einer Vielzahl unterschiedlicher Bakterien getestet. Hierfür wurden Verdünnungstest auf Mikrotiterplatten durchgeführt. Kulturen der verschiedenen Bakterien wurden mit Verdünnungen der erfindungsgemässen Verbindung behandelt und die Konzentration bestimmt, die eine Hemmung des Wachstums der Bakterien im Vergleich mit Kontrollen beobachten ließ.
# Dies liegt vermutlich daran, daß 6 im Gegensatz zum natürlichen Reutericyclin als Razemat vorliegt.
# [2] = system: Escherichia coli; test: microtitre plate dilution test, growth inhibition; conditions: Gram-negative bacteria; at the tested concentrations
# Source text: as §1
# [3] = system: Listeria ivanovii (DSM20750); test: microtitre plate dilution test, growth inhibition; conditions: compared with Lactobacillus sanfranciscensis
# Source text: as §1
# [4] = system: Staphylocokus aureus (SG511); test: microtitre plate dilution test, growth inhibition; conditions: compared with Lactobacillus sanfranciscensis
# Source text: as §1
# [5] = system: Enterococcus Faecalis (DSM20409); test: microtitre plate dilution test, growth inhibition; conditions: natural product, read-out: Konzentration, die eine Hemmung des Wachstums der Bakterien bewirkte
# Source text: as §1
# (§2) Einige humanpathogene Keime, wie beispielsweise Enterococcus Faecalis (DSM20409) erwies sich sogar noch als deutlich empfindlicher gegenüber Reutericyclin. Hier bewirkte eine Konzentration von etwa 0,05 mg/l eine Hemmung des Wachstums der Bakterien. […] Es war also keine Kreuzresistenz festzustellen.
# [6] = system: L. sakei (LTH673); test: microtitre plate dilution test, growth inhibition; conditions: compared with L. sanfranciscensis (MIC 0,1 +/-0,05 mg/l)
# Source text: as §1
# (§3) Diese sogenannte minimale inhibitorische Konzentration wurde für das Bakterium Lactobacillus sanfranciscensis (ATCC27651) mit 0,1 +/-0,05 mg/l bestimmt.
# [7] = system: L. curvatus (LTH1174); test: microtitre plate dilution test, growth inhibition; conditions: compared with L. sanfranciscensis (MIC 0,1 +/-0,05 mg/l)
# Source text: as §1, §3
# [8] = system: Antibiotika-resistente klinische Isolate (Enterococcus Faecalis); test: microtitre plate dilution test, antibiotic-resistant clinical isolates; conditions: no cross-resistance found
# Source text: as §1, §2
# [9] = system: Lactobacillus sanfranciscensis (ATCC27651); test: microtitre plate dilution test, minimal inhibitory concentration; conditions: natural product isolated from Lactobacillus reuteri LTH 2584; growth inhibition versus controls; read-out: minimale inhibitorische Konzentration
# Source text: as §1, §3
# [10] = system: Hefen; test: microtitre plate dilution test, growth inhibition; conditions: yeasts; at the tested concentrations
Structure (SMILES),Menge für gleiche Ergebnisse wie eine Menge des natürlichen Reutericyclins ([1]; as a rule),antibakterielle Wirkung [1],Empfindlichkeit gegenüber Reutericyclin [2],Empfindlichkeit gegenüber Reutericyclin [3],Empfindlichkeit gegenüber Reutericyclin [4],MIC [5] [µg/mL],Empfindlichkeit gegenüber Reutericyclin [6],Empfindlichkeit gegenüber Reutericyclin [7],Empfindlichkeit gegenüber Reutericyclin [8],MIC [9] [µg/mL],Empfindlichkeit gegenüber Reutericyclin [10]
"CCCCCCC/C=C/C(=O)N1C(O)=C(C(C)=O)C(=O)C1CC(C)C (racemic) [compound 6, N-trans-2-Decenoyl-3-acetyl-5-iso-butylpyrrolidin-2,4-dion]",doppelte Mengen,etwas schwächer,,,,,,,,,
"CCCCCCC/C=C/C(=O)N1C(O)=C(C(C)=O)C(=O)[C@H]1CC(C)C [Reutericyclin, 5R-1-(2-trans-Decenoyl)-3-acetyl-5-isobutyl-delta2-pyrrolin4-on]",,,nicht empfindlich,in einer entsprechenden Größenordnung wie Lactobacillus sanfranciscensis,in einer entsprechenden Größenordnung wie Lactobacillus sanfranciscensis,~0.05,sehr ähnliche Empfindlichkeiten,sehr ähnliche Empfindlichkeiten,ebenfalls eine Empfindlichkeit,0.1,nicht empfindlich
